According to US20060058268A1, “Compounds and methods for treating diabetic vascular diseases” (priority 2004, published 2006):

These molecules were tested on VCAM-1 (assay: VCAM-1 assay with ELISA readout (Examples 5-6)). Settings: 16 h, TNF added with compound, incubated overnight (approximately 16 hours).
Type: cell-based
Experimental: Two to four confluent P150 plates are trypsinized and the cells transferred to a 50 mL conical centrifuge tube. The cells are pelleted, resuspended, and counted using the trypan blue exclusion method.
Cells are resuspended at a concentration of 36,000 cells/mL and 1 mL is aliquoted per well.
Cells are split into 24 well tissue culture plates. The cells in each well should be approximately 90-95% confluent by the following day. Cells should not be older than passage 8.
Compounds are initially screened at 50 μM and 10 μM. A 50 mM stock solution for each compound is prepared in culture medium. The stock solution is diluted to 5 mM and 1 mM. When 10 μL of the 5 mM solution is added to the well (1 mL medium/well), the final concentration will be 50 μM. Adding 10 μL of the 1 mM solution to the well will give a final concentration of 10 μM.
Compounds which will not go into solution in culture medium are resuspended in DMSO at a concentration of 25 mM. The stock solution is then diluted to the final concentration in culture medium. The old medium is aspirated and 1 mL of the new medium with the compound is added. For example, if the final concentration is 50 µM, the 2 μL of the 25 mM stock is added per mL of culture medium. The […] solution is diluted for lower concentrations.
The compounds are added to the plate (each compound is done in duplicate). One plate is done for VCAM expression and one plate is done for ICAM expression.
Immediately after the compounds are added, TNF is added to each well. 100 units/mL TNF is usually added to each well. Since each lot of TNF varies in the number of units, each new lot is titrated to determine the optimum concentration. Therefore this concentration will change. If 100 units/mL is being used, dilute the TNF to 10 units/μL and add 10 μL to each well.
The plates are incubated at 37° C., 5% CO2 overnight (approximately 16 hours). The next day the plates are checked under the microscope to see if there are any visual signs of toxicity. Records are made of any cell death, debris, or morphology changes, as well as insoluble compounds (particulate or turbity).
In order to assess MCP-1, the media (500 μL) is saved and frozen at −70° C. Wash cells once with roughly 1 ml/well of Hanks Balance Salt Solution (HBSS) or PBS. Gently empty the wash solution and then tap the plate onto paper towels. Add either 250 μL/well of HBSS+5% FCCS to the plank (no primary antibody wells) or 250 μL/well of primary antibody diluted in HBSS+5% FCS. Incubate for 30 minutes at 37° C. Wash the wells twice with 0.5 mL/well HBSS or PBS and gently tap the plates onto paper towels after the last wash. Add 250 μL/well of HRP-conjugated second antibody diluted in HBSS+5% FCS to every well including the blank wells (no primary antibody). Incubate at 37° C. for 30 minutes. Wash the wells four times with 0.5 mL/well HBSS or PBS and gently tap the plates onto paper towels after the last wash. Add 250 μL/well of substrate solution. Incubate at room temperature in the dark until there is adequate color development (blue). Note the length of time incubation was performed (typically 15-30 minutes). Add 75 μL/well stopper solution (8N sulfuric acid), and read at 450 nm.

Molecule	IC50
CC(C)(Sc1cc(C(C)(C)C)c(O)c(C(C)(C)C)c1)Sc1cc(C(C)(C)C)c(OCC(=O)O)c(C(C)(C)C)c1 [Acetic acid, [4-[[1-[[3,5-bis(1,1-dimethylethyl)-4-hydroxyphenyl]thio]-1-methylethyl]thio]2,6-bis(1,1-dimethylethyl)phenoxy]-]	10 µM
C=CC(=O)OCCCCOc1c(C(C)(C)C)cc(SC(C)(C)Sc2cc(C(C)(C)C)c(O)c(C(C)(C)C)c2)cc1C(C)(C)C [2-Propenoic acid, 4-[4-[[1-[[3,5-bis(1,1-dimethylethyl)-4-hydroxyphenyl]thio]-1-methylethyl]thio]-2,6-bis(1,1-dimethylethyl)phenoxy]butyl ester]	75 µM
CC(C)(Sc1cc(C(C)(C)C)c(O)c(C(C)(C)C)c1)Sc1cc(C(C)(C)C)c(OC(=O)c2ccc([N+](=O)[O-])o2)c(C(C)(C)C)c1 [2-Furancarboxylic acid, 5-nitro-, 4-[[1-[[3,5-bis(1,1-dimethylethyl)-4-hydroxyphenyl]thio]-1-methylethyl]thio]-2,6-bis(1,1-dimethylethyl)phenyl ester]	25 µM
CC(C)(Sc1cc(C(C)(C)C)c(O)c(C(C)(C)C)c1)Sc1cc(C(C)(C)C)c(O/C=C/C(=O)O)c(C(C)(C)C)c1 [2-Propenoic acid, 3-[4-[[1-[[3,5-bis(1,1-dimethylethyl)-4-hydroxyphenyl]thio]-1-methylethyl]thio]-2,6-bis(1,1-dimethylethyl)phenoxy]-, (E)-]	30 µM
CC(C)(Sc1cc(C(C)(C)C)c(O)c(C(C)(C)C)c1)Sc1cc(C(C)(C)C)c(OCCCCO)c(C(C)(C)C)c1 [Phenol, 4-[[1-[[3,5-bis(1,1-dimethylethyl)-4-(4-hydroxybutoxy)phenyl]thio]-1-methylethyl]thio]-2,6-bis(1,1-dimethylethyl)-]	125 µM
CC(C)(Sc1ccc(OCCCCN)cc1)Sc1cc(C(C)(C)C)c(O)c(C(C)(C)C)c1 [Phenol, 4-[[1-[[4-(4-aminobutoxy)phenyl]thio]-1-methylethyl]thio]-2,6-bis(1,1-dimethylethyl)-]	5 µM

Continued, values first:

IC50	Molecule
16 µM	CC(C)(Sc1cc(C(C)(C)C)c(O)c(C(C)(C)C)c1)Sc1cc(C(C)(C)C)c(OCC(O)CNCC(=O)O)c(C(C)(C)C)c1 (centres unmarked) [Glycine, N-[3-[4-[[1-[[3,5-bis(1,1-dimethylethyl)-4-hydroxyphenyl]thio]-1-methylethyl]thio]-2,6-bis(1,1-dimethylethyl)phenoxy]2-hydroxypropyl]-]
8.7 µM	CC(C)(Sc1cc(C(C)(C)C)c(O)c(C(C)(C)C)c1)Sc1cc(C(C)(C)C)c(OC(=O)CCCC(=O)O)c(C(C)(C)C)c1 [Pentanedioic acid mono[4-[[1-[[3,5-bis(1,1-dimethylethyl)-4-hydroxyphenyl]thio]-1-methylethyl]thio]-2,6-bis(1,1-dimethylethyl)phenyl] ester]
5 µM	CC(C)(Sc1cc(C(C)(C)C)c(O)c(C(C)(C)C)c1)Sc1cc(C(C)(C)C)c(OC(=O)CN)c(C(C)(C)C)c1 [Glycine, 4-[[1-[[3,5-bis(1,1-dimethylethyl)-4-hydroxyphenyl]thio]-1-methylethyl]thio]-2,6-bis(1,1-dimethylethyl)phenyl ester]
75 µM	CC(C)(Sc1cc(C(C)(C)C)c(O)c(C(C)(C)C)c1)Sc1cc(C(C)(C)C)c(OCC(=O)N[C@@H](CCC(=O)O)C(=O)O)c(C(C)(C)C)c1 [Glutamic acid, N-[[4-[[1-[[3,5-bis(1,1-dimethylethyl)-4-hydroxyphenyl]thio]-1-methylethyl]thio]-2,6-bis(1,1-dimethylethyl)phenoxy]acetyl]-]
55 µM	CC(C)(Sc1cc(C(C)(C)C)c(O)c(C(C)(C)C)c1)Sc1cc(C(C)(C)C)c(OC=CCO)c(C(C)(C)C)c1 [Phenol, 4-[[1-[[3,5-bis(1,1-dimethylethyl)-4-[[3-hydroxy-1-propenyl)oxy]phenyl]thio]-1-methylethyl]thio]-2,6-bis(1,1-dimethylethyl)-]
19 µM	CC(C)(Sc1ccc(OCCCC(=O)O)cc1)Sc1cc(C(C)(C)C)c(O)c(C(C)(C)C)c1 [Butanoic acid, 4-[4-[[1-[[3,5-bis(1,1-dimethylethyl)-4-hydroxyphenyl]thio]-1-methylethyl]thio]phenoxy]-]
10 µM	CC(C)(Sc1cc(C(C)(C)C)c(O)c(C(C)(C)C)c1)Sc1cc(C(C)(C)C)c(OC[C@H]2OC(O)[C@H](O)[C@@H](O)[C@@H]2O)c(C(C)(C)C)c1 (stereo partly drawn) [D-Glucopyranose, 6-O-[4-[[1-[[3,5-bis(1,1-dimethylethyl)-4-hydroxyphenyl]thio]-1-methylethyl]thio]-2,6-bis(1,1-dimethylethyl)phenyl]-]
75 µM	CCOCC(O)COc1c(C(C)(C)C)cc(SC(C)(C)Sc2cc(C(C)(C)C)c(O)c(C(C)(C)C)c2)cc1C(C)(C)C (centres unmarked) [Phenol, 4-[[1-[[3,5-bis(1,1-dimethylethyl)-4-(3-ethoxy-2-hydroxypropoxy)phenyl]thio]-1-methylethyl]thio]-2,6-bis(1,1-dimethylethyl)-]

Same assay, conditions: TNF added with compound, incubated overnight (approximately 16 hours)

Molecule	IC50
Cc1ccc(CSc2cc(C(C)(C)C)c(O)c(C(C)(C)C)c2)cc1 [2,6-di-tert-butyl-4-thio(4′-methylbenzyl)phenol]	75 µM
CN(C)Cc1ccc(CSc2cc(C(C)(C)C)c(O)c(C(C)(C)C)c2)o1 [2,6-di-tert-butyl-4-thio(5′-methyl-2′-((dimethylamino)methyl)furan)phenol]	10 µM
CC(=O)OC(C)(C)CSc1cc(C(C)(C)C)c(O)c(C(C)(C)C)c1 [2,6-di-tert-butyl-4-thio(2′-acetoxy,2′-methylpropyl)phenol]	50 µM
Butanedioic acid, mono[4-[[1-[[3,5-bis(1,1-dimethylethyl)-4-methoxyphenyl]thio]1-methylethyl]thio]-2,6-bis(1,1-dimethylethyl)phenyl] ester	> 50 µM

Other lines, results leading:

IC50	Molecule
> 100 µM	CC(C)(Sc1cc(C(C)(C)C)c(O)c(C(C)(C)C)c1)Sc1cc(C(C)(C)C)c(OCC2OC2CO)c(C(C)(C)C)c1 (centres unmarked) [Oxiranemethanol, 3-[[4-[[1-[[3,5-bis(1,1-dimethylethyl)-4-hydroxyphenyl]thio]-1-methylethyl]thio]-2,6-bis(1,1-dimethylethyl)phenoxy]methyl]-]
60 µM	Oxiranemethanol, α-[[[3-[[4-[[1-[[3,5-bis(1,1-dimethylethyl)-4-hydroxyphenyl]thio]-1-methylethyl]thio]-2,6-bis(1,1-dimethylethyl)phenoxy]methyl]oxiranyl]methoxy]methyl]-
> 50 µM	CN(C)c1ccc(CCOc2c(C(C)(C)C)cc(SC(C)(C)Sc3cc(C(C)(C)C)c(OCCc4ccc(N(C)C)cc4)c(C(C)(C)C)c3)cc2C(C)(C)C)cc1 [Benzenamine, 4,4′-[(1-methylethylidene)bis [thio[2,6-bis(1,1-dimethylethyl)-4,1-phenylene]oxy-2,1-ethanediyl]]bis[N,N-dimethyl-]

Same assay, conditions: at 50 μM

Molecule	inhibition at 50 µM
CN(C)CCCOc1c(C(C)(C)C)cc(SC(C)(C)Sc2cc(C(C)(C)C)c(O)c(C(C)(C)C)c2)cc1C(C)(C)C [Phenol, 4-[[1-[[4-[3-(dimethylamino)propoxy]-3,5-bis(1,1-dimethylethyl)phenyl]thio]-1-methylethyl]thio]-2,6-bis(1,1-dimethylethyl)-]	22%
CC(C)(Sc1cc(C(C)(C)C)c(O)c(C(C)(C)C)c1)Sc1cc(C(C)(C)C)c(OC[C@H]2O[C@@H](O)[C@H](O)[C@@H](O)[C@@H]2O)c(C(C)(C)C)c1 [β-D-Glucopyranose, 6-O-[4-[[1-[[3,5-bis(1,1-dimethylethyl)-4-hydroxyphenyl]thio]-1-methylethyl]thio]-2,6-bis(1,1-dimethylethyl)phenyl]-]	30%
